# Experimental data published in patent publication US12454529B2, “Piperazine cyclic ureas” (SIRONAX LTD., priority 2020, dated 2025).
# System: HT-29 cells
# Assay: HT-29 cell necrosis/necroptosis inhibition (TNF-α + SMAC mimetic + zVAD-FMK; CellTiter-Glo cell viability)
# Type: cell-based
# Details: Homo sapiens; HT-29 cells, TNF-α 10 ng/ml + SMAC mimetic 6 μM + zVAD-FMK 10 μM, 20 hours; geometric mean, 10 points in duplicate; read-out: EC50 (Cell activity; Necrosis/Necroptosis Inhibitory Activity, Compounds 1-142)
# Description: Compounds 1-319 (denoted as Compound Nos. 1 through 319 in Table 3 and 4) of the disclosure were tested for binding and cellular RIP1 inhibitory activity following the experimental procedures described below.
# • Cell line: HT-29 (ATCC® HTB-38™) • Culture medium: McCOY's 5A, Gibco, Cat No. 16600-082 • FBS, Gibco, Cat No. 10099-141C • Trypsin: Gibco, Cat No. 25200-056 • DMSO: Sigma, Cat No. 67-68-5, 1L • Assay plate: Corning #3903 • Compound dilution plate: Corning #3357 • Inducers: TNFα, GenScript, Cat No. Z01001-50, • SmacM, Cat. No., HY-15989, MedChemExpress (MCE) • Z_VAD FMK, TargetMol, T6013 • Cell Titer-Glo® Luminescent Cell Viability Assay Kit: Promega, Cat No. G7573 • EnVision: PerkinElmer, 2105-0010 Methods Cell Seeding
# 1. HT-29 cells were checked every day to make sure that they were healthy and growing as expected. They were subjected to sub-culturing when they were approximately 80% confluent.
# 2. The culture medium, McCOY's 5A medium (Gibco, Cat No. 16600-082) with 10% fetal bovine serum or FBS (Gibco, Cat No. 10099-141C), was pre-warmed in a 37° C. water bath for at least 30 min.
# 3. When the cells had reached a desired level of confluency of 80% in a T75 flask, the medium was aspirated, and the cells were washed with warm phosphate buffered saline or PBS two times.
# 4. 2-3 ml fresh warm trypsin (Gibco, Cat No. 25200-056) solution was added to the washed cells. The flask with the cells was transferred to a 37° C. incubator.
# 5. After 5 minutes, the side of the flask was tapped, and the flask was examined under a microscope for detachment of the cells to the flask. If necessary, the cells were kept in the incubator for an additional 5-10 minutes, with occasional tapping, until lifting was complete.
# 6. The trypsin reaction was neutralized by transferring 6-9 ml cell culture medium to sterile 15 ml conical tubes, and by centrifuging the cell culture at 300×g for 7 minutes to pellet the cells (supernatant decanted).
# 7. The cells were resuspended in fresh cell culture medium and the cell counting was performed using a hemocytometer.
# 8. 100 μl of the resuspended cell culture medium containing ˜5,000 cells were transferred into each well of the sterile 96-well cell culture plate (Corning 3903) and cultured overnight at 37° C. with 5% CO2.
# Compound Titration and Treatment
# 1. All test compounds were dissolved in DMSO (Dimethyl sulfoxide) to create a 20 mM stock.
# 2. 3 μl of each compound 20 mM stock was mixed with 27 μl DMSO, and the compound solution was further diluted at a titration ratio of 1:3 (20 μl compound solution+40 μl DMSO) till the 10 points end.
# 3. All culture medium was removed from assay plates filled with HT-29 cell cultures. The cells were then washed with 1 PBS, and resuspended in fresh, FBS-free McCOY's 5A medium containing a cocktail of TNF-α (10 ng/ml), a SMAC mimetic compound (6 μM) and Z-VAD-fluoromethylketone or zVAD-FMK (10 μM) to stimulate the HT-29 cells to increase RIP1 kinase levels and necroptosis.
# 4. 0.5 μL of the diluted compound solution was added to the corresponding 96-well assay plates.
# 5. The assay plates were incubated for 20 hours at 37° C. with 5% CO2.
# 1. The CellTiter-Glo® Luminescent Cell Viability Assay was employed to detect the ATP levels of viable HT-29 cells.
# 2. The CellTiter-Glo® buffer and the lyophilized substrate were equilibrated to room temperature prior to use.
# 3. The CellTiter-Glo® substrate was resuspended with CellTiter-Glo® buffer, then mixed by gently vortexing to obtain a homogeneous solution.
# 4. 20 μl the enzyme/substrate mixture was transferred by multi-channel pipetting into 96-well assay plates.
# 5. The assay plates were placed on an orbital shaker and the contents were shaken for 3 minutes to induce cell lysis.
# 6. The assay plates were incubated at room temperature for 10 minutes to stabilize the luminescent signal.
# 7. The luminescence signals were read and recorded with EnVision.
# 8. The geometric mean EC50 values were calculated from 10 points response dose with duplicates. In
row,SMILES,EC50 [nM]
1,"N#Cc1cc(F)cc([C@@H]2CC=NN2C(=O)N2CCN(c3ncc(F)c(-c4ccc(O)nc4)n3)CC2)c1 [Compound 48, (S)-3-fluoro-5-(1-(4-(5-fluoro-4-(6-hydroxypyridin-3-yl)pyrimidin-2-yl)piperazine-1-carbonyl)-4,5-dihydro-1H-pyrazol-5-yl)benzonitrile]",0.1 to 100
2,"Cc1nn(CC2CC2)c(C)c1-c1nc(N2CCN(C(=O)N3N=CC[C@H]3c3cc(F)cc(F)c3)CC2)ncc1F [Compound 121, (S)-(4-(4-(1-(cyclopropylmethyl)-3,5-dimethyl-1H-pyrazol-4-yl)fluoropyrimidin-2-yl)piperazin-1-yl)(5-(3,5-difluorophenyl)-4,5-dihydro-1H-pyrazol-1-yl)methanone]",0.1 to 100
3,Cc1nn(CC(N)=O)cc1-c1nc(N2CCN(C(=O)N3N=CC[C@H]3c3cc(F)cc(C#N)c3)CC2)ncc1F [Compound 82],0.1 to 100
4,"Cc1nc(C)n(-c2cc(N3CCN(C(=O)N4N=CC[C@H]4c4cc(F)cc(F)c4)CC3)ncn2)n1 [Compound 90, (S)-(5-(3,5-difluorophenyl)-4,5-dihydro-1H-pyrazol-1-yl)(4-(6-(3,5-dimethyl-1H-1,2,4-triazol-1-yl)pyrimidin-4-yl)piperazin-1-yl)methanone]",0.1 to 100
5,"Cc1nnc(-c2nc(N3CCN(C(=O)N4N=CC[C@H]4c4cc(F)cc(C#N)c4)CC3)ncc2F)s1 [Compound 64, (S)-3-fluoro-5-(1-(4-(5-fluoro-4-(5-methyl-1,3,4-thiadiazol-2-yl)pyrimidin-2-yl)piperazine-1-carbonyl)-4,5-dihydro-1H-pyrazol-5-yl)benzonitrile]",0.1 to 100
6,"N#Cc1cc(F)cc([C@@H]2CC=NN2C(=O)N2CCN(c3ncc(F)c(-c4cn[nH]c4)n3)CC2)c1 [Compound 54, (S)-3-fluoro-5-(1-(4-(5-fluoro-4-(1H-pyrazol-4-yl)pyrimidinyl)piperazine-1-carbonyl)-4,5-dihydro-1H-pyrazol-5-yl)benzonitrile]",0.1 to 100
7,"Cc1cc(-c2nc(N3CCN(C(=O)N4N=CC[C@H]4c4cc(F)cc(C#N)c4)CC3)ncc2F)n(C)n1 [Compound 84, (S)-3-(1-(4-(4-(1,3-dimethyl-1H-pyrazol-5-yl)-5-fluoropyrimidin-2-yl)piperazine-1-carbonyl)-4,5-dihydro-1H-pyrazol-5-yl)-5-fluorobenzonitrile]",0.1 to 100
8,"N#Cc1cc(F)cc([C@@H]2CC=NN2C(=O)N2CCN(c3ncc(F)c(-c4ccn(CC(N)=O)n4)n3)CC2)c1 [Compound 76, (S)-2-(3-(2-(4-(5-(3-cyano-5-fluorophenyl)-4,5-dihydro-1H-pyrazole-1-carbonyl)piperazin-1-yl)-5-fluoropyrimidin-4-yl)-1H-pyrazol-1-yl)acetamide]",0.1 to 100
9,"Cc1nc(C)n(-c2ccnc(N3CCN(C(=O)N4N=CC[C@H]4c4cc(F)cc(F)c4)CC3)n2)n1 [Compound 100, (S)-(5-(3,5-difluorophenyl)-4,5-dihydro-1H-pyrazol-1-yl)(4-(4-(3,5-dimethyl-1H-1,2,4-triazol-1-yl)pyrimidin-2-yl)piperazin-1-yl)methanone]",0.1 to 100
10,"Cn1ncc(C#N)c1-c1nc(N2CCN(C(=O)N3N=CC[C@H]3c3cc(F)cc(C#N)c3)CC2)ncc1F [Compound 67, (S)-5-(2-(4-(5-(3-cyano-5-fluorophenyl)-4,5-dihydro-1H-pyrazole-1-carbonyl)piperazin-1-yl)-5-fluoropyrimidin-4-yl)-1-methyl-1H-pyrazole-4-carbonitrile]",0.1 to 100
11,"Cc1nn(CCC2CCOCC2)c(C)c1-c1nc(N2CCN(C(=O)N3N=CC[C@H]3c3cc(F)cc(C#N)c3)CC2)ncc1F [Compound 138, (S)-3-(1-(4-(4-(3,5-dimethyl-1-(2-(tetrahydro-2H-pyran-4-yl)ethyl)-1H-pyrazol-4-yl)-5-fluoropyrimidin-2-yl)piperazine-1-carbonyl)-4,5-dihydro-1H-pyrazol-5-yl)-5-fluorobenzonitrile]",0.1 to 100
12,"COc1nc(OC)c(-c2nc(N3CCN(C(=O)N4N=CC[C@H]4c4cc(F)cc(F)c4)CC3)ncc2F)c(OC)n1 [Compound 49, (S)-(5-(3,5-difluorophenyl)-4,5-dihydro-1H-pyrazol-1-yl)(4-(5-fluoro-2′,4′,6′-trimethoxy-[4,5′-bipyrimidin]-2-yl)piperazin-1-yl)methanone]",0.1 to 100
13,"Cc1n[nH]nc1-c1nc(N2CCN(C(=O)N3N=CC[C@H]3c3cc(F)cc(C#N)c3)CC2)ncc1F [Compound 80, (S)-3-fluoro-5-(1-(4-(5-fluoro-4-(5-methyl-2H-1,2,3-triazol-4-yl)pyrimidin-2-yl)piperazine-1-carbonyl)-4,5-dihydro-1H-pyrazol-5-yl)benzonitrile]",0.1 to 100
14,"Cc1nc(C)n(-c2ncnc(N3CCN(C(=O)N4N=CC[C@H]4c4cc(F)cc(C#N)c4)CC3)n2)n1 [Compound 130, (S)-3-(1-(4-(4-(3,5-dimethyl-1H-1,2,4-triazol-1-yl)-1,3,5-triazin-2-yl)piperazine-1-carbonyl)-4,5-dihydro-1H-pyrazol-5-yl)-5-fluorobenzonitrile]",0.1 to 100
15,"Cc1noc(C)c1-c1nc(N2CCN(C(=O)N3N=CC[C@H]3c3cc(F)cc(F)c3)CC2)ncc1F [Compound 108, (S)-(5-(3,5-difluorophenyl)-4,5-dihydro-1H-pyrazol-1-yl)(4-(4-(3,5-dimethylisoxazol-4-yl)-5-fluoropyrimidin-2-yl)piperazin-1-yl)methanone]",0.1 to 100
16,"Cc1nn(CC(N)=O)nc1-c1nc(N2CCN(C(=O)N3N=CC[C@H]3c3cc(F)cc(C#N)c3)CC2)ncc1F [Compound 78, (S)-2-(4-(2-(4-(5-(3-cyano-5-fluorophenyl)-4,5-dihydro-1H-pyrazole-1-carbonyl)piperazin-1-yl)-5-fluoropyrimidin-4-yl)-5-methyl-2H-1,2,3-triazol-2-yl)acetamide]",0.1 to 100

# Same assay, conditions: Homo sapiens; HT-29 cells, TNF-α 10 ng/ml + SMAC mimetic 6 μM + zVAD-FMK 10 μM, 20 hours; geometric mean, 10 points in duplicate; read-out: EC50 (Cell activity; Necrosis/Necroptosis Inhibitory Activity, Compounds 143-323)
row,SMILES,EC50 [nM]
1,"Cc1nc(C)n(-c2nc(N3CCN(C(=O)N4N=CCC4c4cc(C#N)cc(F)c4F)CC3)ncc2F)n1 (centres unmarked) [Compound 238, 3-(1-(4-(4-(3,5-dimethyl-1H-1,2,4-triazol-1-yl)-5-fluoropyrimidin-2-yl)piperazine-1-carbonyl)-4,5-dihydro-1H-pyrazol-5-yl)-4,5-difluorobenzonitrile]",0.1 to 100
2,"Cc1nn(-c2ccnc(N3CCN(C(=O)N4N=CC[C@H]4c4cc(F)cc(C#N)c4)CC3)n2)c(C)c1Cl [Compound 288, (S)-3-(1-(4-(4-(4-chloro-3,5-dimethyl-1H-pyrazol-1-yl)pyrimidin-2-yl)piperazine-1-carbonyl)-4,5-dihydro-1H-pyrazol-5-yl)-5-fluorobenzonitrile]",0.1 to 100
3,"Cn1ncnc1-c1ccc(F)c(N2CCN(C(=O)N3N=CC[C@H]3c3cc(F)cc(C#N)c3)CC2)n1 [Compound 176, (S)-3-fluoro-5-(1-(4-(3-fluoro-6-(1-methyl-1H-1,2,4-triazol-5-yl)pyridin-2-yl)piperazine-1-carbonyl)-4,5-dihydro-1H-pyrazol-5-yl)benzonitrile]",0.1 to 100
4,"Cc1nn(-c2cc(N3CCN(C(=O)N4N=CC[C@H]4c4cc(F)cc(C#N)c4)CC3)ncn2)c(C)c1Br [Compound 278, (S)-3-(1-(4-(6-(4-bromo-3,5-dimethyl-1H-pyrazol-1-yl)pyrimidin-4-yl)piperazine-1-carbonyl)-4,5-dihydro-1H-pyrazol-5-yl)-5-fluorobenzonitrile]",0.1 to 100
